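These data come from cells grown in 96-well plates and exposed to compound for 48 hours at five concentrations. Definition used: TGI = concentration required for complete inhibition of growth.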
Tests used:
Test in all cases: DTP human tumour cell line panel, 48 h
ACHN renal = system: ACHN renal
CAKI-1 renal = system: CAKI-1 renal
HCT-15 colon = system: HCT-15 colon
HOP-62 NSCLC = system: HOP-62 NSCLC
M14 melanoma = system: M14 melanoma
MDA-N = system: MDA-N
NCI-H23 lung = system: NCI-H23 lung
OVCAR-4 ovarian = system: OVCAR-4 ovarian
RXF 393 renal = system: RXF 393 renal
SF-539 CNS = system: SF-539 CNS
SK-MEL-2 melanoma = system: SK-MEL-2 melanoma

`O=C(c1ccco1)N1CCN(C(=O)c2ccco2)C1=S` gave a TGI (ACHN renal) of 22.3 µM, a TGI (CAKI-1 renal) of 16.7 µM and a TGI (HCT-15 colon) of 26.3 µM. For the same compound, the TGI (HOP-62 NSCLC) was 33.1 µM, the TGI (M14 melanoma) was 40.5 µM and the TGI (MDA-N) was 22.6 µM. It also gave a TGI (NCI-H23 lung) of 50.3 µM, a TGI (OVCAR-4 ovarian) of 35.2 µM and a TGI (RXF 393 renal) of 12 µM. It also gave a TGI (SF-539 CNS) of 11.2 µM and a TGI (SK-MEL-2 melanoma) of 31 µM.

In the case of `CCCCCC(/C=N/NC(N)=S)C(O)(C(F)(F)F)C(F)(F)F` (stereo unspecified), the TGI (ACHN renal) is reported as greater than 10 µM, the TGI (CAKI-1 renal) is reported as greater than 10 µM and the TGI (HCT-15 colon) is reported as greater than 10 µM. It also gave a TGI (HOP-62 NSCLC) greater than 10 µM, a TGI (M14 melanoma) greater than 10 µM and a TGI (MDA-N) greater than 10 µM. It also gave a TGI (NCI-H23 lung) greater than 10 µM, a TGI (OVCAR-4 ovarian) greater than 10 µM and a TGI (RXF 393 renal) greater than 10 µM. The TGI (SF-539 CNS) was greater than 10 µM and the TGI (SK-MEL-2 melanoma) was greater than 10 µM.

`CCO[C@H]1C[C@@H](c2ccccc2)[C@]2(C)C[C@H](C(=O)OC)ON2O1` was tested, and the TGI (ACHN renal) was greater than 100 µM, the TGI (CAKI-1 renal) was greater than 100 µM and the TGI (HCT-15 colon) was greater than 100 µM. It also gave a TGI (HOP-62 NSCLC) greater than 100 µM, a TGI (M14 melanoma) greater than 100 µM and a TGI (MDA-N) greater than 100 µM. It also gave a TGI (NCI-H23 lung) greater than 100 µM, a TGI (OVCAR-4 ovarian) greater than 100 µM and a TGI (RXF 393 renal) greater than 100 µM. For the same compound, the TGI (SF-539 CNS) was greater than 100 µM and the TGI (SK-MEL-2 melanoma) was greater than 100 µM.

For `CCOC(=O)/C=C/[C@H](O[Si](c1ccccc1)(c1ccccc1)c1ccccc1)C(C)(C)C`, the TGI (ACHN renal) was greater than 31.6 µM, the TGI (CAKI-1 renal) was greater than 31.6 µM and the TGI (HCT-15 colon) was greater than 31.6 µM. For the same compound, the TGI (HOP-62 NSCLC) was greater than 31.6 µM, the TGI (M14 melanoma) was greater than 100 µM and the TGI (MDA-N) was greater than 31.6 µM. It also gave a TGI (NCI-H23 lung) greater than 31.6 µM, a TGI (OVCAR-4 ovarian) greater than 31.6 µM and a TGI (RXF 393 renal) greater than 31.6 µM. The TGI (SF-539 CNS) was greater than 31.6 µM and the TGI (SK-MEL-2 melanoma) was greater than 31.6 µM.

Compound `CCOC(=O)c1cc2cc(CSc3ccccc3)ccc2oc1=O` has a TGI (ACHN renal) greater than 100 µM, a TGI (CAKI-1 renal) greater than 100 µM and a TGI (HCT-15 colon) greater than 100 µM. For the same compound, the TGI (HOP-62 NSCLC) was greater than 100 µM, the TGI (M14 melanoma) was greater than 100 µM and the TGI (MDA-N) was greater than 100 µM. For the same compound, the TGI (NCI-H23 lung) was greater than 100 µM, the TGI (OVCAR-4 ovarian) was greater than 100 µM and the TGI (RXF 393 renal) was greater than 100 µM. For the same compound, the TGI (SF-539 CNS) was greater than 100 µM and the TGI (SK-MEL-2 melanoma) was greater than 100 µM.

Work on `CSCCCNC(=O)c1csc([C@@H](CSC)NC(=O)CCNC(=O)[C@@H](NC(=O)OCC(Br)(Br)Br)C(C)O)n1` (stereo partly specified) yielded a TGI (ACHN renal) greater than 100 µM, a TGI (CAKI-1 renal) greater than 100 µM and a TGI (HCT-15 colon) greater than 100 µM. The TGI (HOP-62 NSCLC) was greater than 100 µM, the TGI (M14 melanoma) was greater than 100 µM and the TGI (MDA-N) was greater than 100 µM. For the same compound, the TGI (NCI-H23 lung) was greater than 100 µM, the TGI (OVCAR-4 ovarian) was greater than 100 µM and the TGI (RXF 393 renal) was greater than 100 µM. The TGI (SF-539 CNS) was greater than 100 µM and the TGI (SK-MEL-2 melanoma) was greater than 100 µM.

For `O=C(O)c1cc2c(cc1S(=O)(=O)O)C1C(C3C2C2(Cl)C(Cl)=C(Cl)C3(Cl)C2(Cl)Cl)C2(Cl)C(Cl)=C(Cl)C1(Cl)C2(Cl)Cl` (stereo unspecified), the TGI (ACHN renal) was greater than 100 µM, the TGI (CAKI-1 renal) was greater than 100 µM and the TGI (HCT-15 colon) was greater than 100 µM. The TGI (HOP-62 NSCLC) was 89.1 µM, the TGI (M14 melanoma) was greater than 100 µM and the TGI (MDA-N) was greater than 100 µM. For the same compound, the TGI (NCI-H23 lung) was 73.3 µM, the TGI (OVCAR-4 ovarian) was greater than 100 µM and the TGI (RXF 393 renal) was greater than 100 µM. The TGI (SF-539 CNS) was 60.3 µM and the TGI (SK-MEL-2 melanoma) was 73.4 µM.

`CC(=O)NC1CCC(NC(=O)OC(C)(C)C)C(NC(=O)OC(C)(C)C)C1` (stereo unspecified) was tested, and the TGI (ACHN renal) was greater than 100 µM, the TGI (CAKI-1 renal) was greater than 100 µM and the TGI (HCT-15 colon) was greater than 100 µM. It also gave a TGI (HOP-62 NSCLC) greater than 100 µM, a TGI (M14 melanoma) greater than 100 µM and a TGI (MDA-N) greater than 100 µM. The TGI (NCI-H23 lung) was greater than 100 µM, the TGI (OVCAR-4 ovarian) was greater than 100 µM and the TGI (RXF 393 renal) was greater than 100 µM. It also gave a TGI (SF-539 CNS) greater than 100 µM and a TGI (SK-MEL-2 melanoma) greater than 100 µM.

Work on `Cn1c2ccccc2n2c3ccccc3c(=S)c(C#N)c12` yielded a TGI (ACHN renal) greater than 100 µM, a TGI (CAKI-1 renal) greater than 100 µM and a TGI (HCT-15 colon) greater than 100 µM. It also gave a TGI (HOP-62 NSCLC) greater than 100 µM, a TGI (M14 melanoma) greater than 100 µM and a TGI (MDA-N) greater than 100 µM. The TGI (NCI-H23 lung) was greater than 100 µM, the TGI (OVCAR-4 ovarian) was greater than 100 µM and the TGI (RXF 393 renal) was greater than 100 µM. For the same compound, the TGI (SF-539 CNS) was greater than 100 µM and the TGI (SK-MEL-2 melanoma) was greater than 100 µM.

`FC(F)(F)C1(C(F)(F)F)OC(Cl)(Cl)C(Cl)(Cl)O1` showed a TGI (ACHN renal) greater than 10 µM, a TGI (CAKI-1 renal) greater than 10 µM and a TGI (HCT-15 colon) greater than 10 µM. The TGI (HOP-62 NSCLC) was greater than 10 µM, the TGI (M14 melanoma) was greater than 10 µM and the TGI (MDA-N) was greater than 10 µM. It also gave a TGI (NCI-H23 lung) greater than 10 µM, a TGI (OVCAR-4 ovarian) greater than 10 µM and a TGI (RXF 393 renal) greater than 10 µM. It also gave a TGI (SF-539 CNS) greater than 10 µM and a TGI (SK-MEL-2 melanoma) greater than 10 µM.

In the case of `Cc1ccnc2c1c(=O)c1ccccc1n2C`, the TGI (ACHN renal) is reported as 56.8 µM, the TGI (CAKI-1 renal) is reported as 51.4 µM and the TGI (HCT-15 colon) is reported as greater than 100 µM. It also gave a TGI (HOP-62 NSCLC) greater than 100 µM, a TGI (M14 melanoma) greater than 100 µM and a TGI (MDA-N) greater than 100 µM. The TGI (NCI-H23 lung) was greater than 100 µM, the TGI (OVCAR-4 ovarian) was greater than 100 µM and the TGI (RXF 393 renal) was greater than 100 µM. For the same compound, the TGI (SF-539 CNS) was greater than 100 µM and the TGI (SK-MEL-2 melanoma) was greater than 100 µM.

Source: PubChem BioAssay (NCI)
